# Earlier results as cited in patent US10689308B2, “Solvent for thiophosphoric triamide or dicyandiamide solutions, and related methods” (RHODIA OPERATIONS, priority 2014, dated 2020).
# Conditions: dicyandiamide in a solid form; background statement
compound,measurement,value
N#CNC(=N)N [Dicyandiamide],solubility in water,about 41 grams per liter
